Measured values: patent publication US20220119777A1, “CHEMILUMINESCENCE PHOTODYNAMIC VIRUS INACTIVATION OF RED BLOOD CELLS” (priority 2020, published 2022)

Test system: bovine viral diarrhea virus (BVDV)
Test: Hypericin-Luciferase inactivation of BVDV spiked into human red blood cell concentrate, TCID50 titration (CPE)
Type: cell-based
Details: for Unwashed Titer / Unwashed VRF / Washed Titer / Combined VRF / Washed VRF: no luciferase system; for Unwashed Titer: RT 2 h dark; for Unwashed VRF / Washed VRF: vs RBC control; for Combined VRF: washed sample vs unwashed RBC control
Experimental: Ten different combinations of Dulbecco's modified eagle medium without calcium and magnesium (DMEM (—Ca++, —Mg++)), RBCC, virus, hypericin, luciferin, ATP and luciferase were prepared to all contain equivalent titers of BVDV calculated to be 6.48 log 10TCID50/mL based on the titer of the original virus stock. The concentrations of hypericin tested were 0, 40 and 200 μg/mL. Luciferase was tested at 0, 0.8 and 4.0 μM. Luciferin and ATP were present at 80 and 800 μM respectively when luciferase was present and absent in the absence of luciferase.
The components were mixed and incubated at room temperature (RT) for 2 hours in the dark followed by titration of unwashed and washed samples as previously described. Washing rows of wells with dilutions 1 and 2 was performed 3 days post-infection. Final cytopathic effects (CPEs) were read 10 days post-infection.
(§1) Eleven different combinations of DMEM (—Ca++, —Mg++), RBCC, virus, hypericin, luciferin, adenosine triphosphate (ATP) and luciferase were prepared to all contain equivalent titers of BVDV calculated to be 6.48 log 10TCID50/mL (logs) based on the titer of the original virus stock. The concentrations of hypericin tested were 10, 20 and 40 μg/mL. Luciferase was tested at 0.16, 0.32 and 0.8 μM. Luciferin and ATP were present at 80 and 800 μM, respectively.
The components were mixed and incubated at RT for 2 hours in the dark followed by titration of unwashed and washed samples as previously described. Washing of rows of wells with dilutions 1 and 2 was performed […] post-infection. Final CPE were read 10 days post-infection.
as §1, with “Ten” for “Eleven”, “log10 TCID50/mL” for “log 10TCID50/mL”, “40, 80” for “10, 20”, “120” for “40”
The compounds were mixed and incubated at RT for 2 hours in the dark followed by titration of unwashed and washed samples as previously described. Washing rows of wells with dilutions 1 and 2 was performed 2 days post-infection. Final CPEs were read 10 days post-infection.

[1] = Ex 1 HH-LN: hypericin 200 μg/mL
[2] = Ex 1 HH-LN: hypericin 200 μg/mL, washed
[3] = Ex 1 HL-LN: hypericin 40 μg/mL, washed

## Cc1cc(O)c2c(=O)c3c(O)cc(O)c4c5c(O)cc(O)c6c(=O)c7c(O)cc(C)c8c1c2c(c34)c(c78)c65 [Hypericin, hypericin]
[1]
  Unwashed Titer: 3.10 log10TCID50/mL
  Unwashed VRF: 3.25 log TCID50
  Combined VRF: 3.87 log TCID50
[2]
  Washed Titer: 2.48 log10TCID50/mL
  Washed VRF: 1.50 log TCID50
Ex 1 HL-LN: hypericin 40 μg/mL
  Unwashed Titer: 3.48 log10TCID50/mL
  Unwashed VRF: 2.87 log TCID50
  Combined VRF: >4.01 log TCID50
[3]
  Washed Titer: <2.34 log10TCID50/mL
  Washed VRF: >1.64 log TCID50
Example 1, all hypericin treated unwashed samples, low (40 μg/mL) and high (200 μg/mL) doses
  VRFs, unwashed samples: ~3 logs
Example 3, hypericin 40 μg/mL, all levels of luciferase, washed
  combined VRFs: > 3.51 logs
Example 3, hypericin dose of 40 μg/mL, all levels of luciferase, washed, complete inactivation/elimination
  VRF, washed samples: > 1.14 logs
Summary of Examples 1-3, with different doses of luciferase
  optimal dose of hypericin for BVDV: 40 µg/mL
